This is an account of results in patent US10359430B2, “Selective near-infrared optical imaging of necrotic cells and simultaneous cell fixing and counter staining with metallacrown complexes” (THE REGENTS OF THE UNIVERSITY OF MICHIGAN, priority 2015, dated 2019).

The nature of data set [1]: Photophysical properties of the metallacrowns in solid state and in aqueous solutions. The class given is physicochemical. The method, then:
FIG. 4. illustrates the normalized excitation (λem(Nd^3+)=1070 nm, λem(Yb^3+)=980 nm) and emission (λex=370 nm) spectra of Yb^3+[Zn(II)MCpyzHA], at the top, and Nd^3+[Zn(II)MCpyzHA] MCs, at the bottom, (solid or 200 μM solutions, room temperature).

Test in data set [2]: as above
The class given is physicochemical. The source holds these as a separate data set.

Data set [3] has as its system HeLa cells. Nature of the data set: NIR epifluorescence microscopy of HeLa cells (necrotic cell labelling, simultaneous staining and fixing). The class given is cell-based, Human. As to conditions: 150 μM complex and 3 μM propidium iodide together, UV light (377 nm) 5 minutes. The procedure:
(§1) Cells were seeded in a 8-well Lab Tek Chamber coverglass (Nunc, Dutsher S.A., Brumath, France) at a density of 6×10^4 cells/well and cultured at 37° C. in 5% humidified CO2 atmosphere.
The continued incubation enabled the internalization of the complexes.
All of the previously mentioned incubated HeLa cells were then washed with fresh OPTI-MEM® media and were incubated with 3 μM propidium iodide for 5 minutes. Propidium iodide is a commercially available stain (emitting in the visible range) for necrotic cells, and was used to confirm cell necrosis.
i. 377 nm with 50 nm band-pass filter with 50 nm bandwidth for the excitation and 805 nm long-pass filter 805 nm or 996 nm band-pass filter with 70 nm bandwidth for YbIII emission in the NIR range.
ii. […] for the excitation and 805 nm long-pass filter 805 nm or 996 nm band-pass filter with 70 nm bandwidth for YbIII emission in the NIR range. […]

Data set [4] relates to HeLa cells. Description: NIR epifluorescence microscopy of HeLa cells treated with N-acetyl cysteine. It counts as cell-based, Human. To be noted: 150 μM complex 15 minutes. The procedure:
Formation of extracellular vesicules is a result of cellular response on oxidative stress which indicates excessive production of ROS (Reactive oxygen species). In order to investigate if ROS are responsible for dual function of Yb^3+[Zn(II)MCpyzHA], HeLa cancer cells were treated with NAC (N-acetyl cysteine), which is a well known antioxidant that efficiently blocks production of reactive oxygen species (ROS).
as §1
After 24 hours, the cell culture media was removed. Some of the cells were washed twice with OPTI-MEM® media (room temperature), incubated with N-acetyl cysteine (NAC) for 15 minutes, washed twice with OPTI-MEM® media and incubated with 150 μM of Yb^3+[Zn(II)MCpyzHA] for 15 minutes.
After 24 hours, the cell culture media was removed. Some of the cells were washed twice with OPTI-MEM® media (room temperature), and incubated with 150 μM of Yb^3+[Zn(II)MCpyzHA] for 15 minutes. N-acetyl cysteine (NAC) was added, and the cells were incubated for another 30 minutes. The cells were washed twice with OPTI-MEM® media.

A short description of data set [5]: Photostability stress tests. The class given is physicochemical. To be noted: 150 μM in water and OPTI-MEM media, 5 hours of irradiation with 377 nm light. The method, then:
Photostability stress tests of Yb^3+[Zn(II)MCpyzHA] (Yb λem=980 nm) and Nd^3+[Zn(II)MCpyzHA] (Nd λem=1064 nm) and the commercially available dye for necrotic cells (Propidium Iodide) were performed. The complexes (150 μM) or dye (50 μM) were dissolved in water and the complexes were also dissolved in OPTI-MEM® media. The MC solutions were exposed to 5 hours of UV radiation (377 nm). The propidium iodide solution was exposed to 5 hours of UV radiation (530 nm).

For data set [6], the system named is MSC (Mesenchymal Stem Cells). As to conditions: 150 μM, 15 minutes, UV light (377 nm) 8 minutes, further 1 hour.
Experimental: The MSC (Mesenchyml Stem Cells) cell line was obtained from University in Orleans, 13MTO Laboratory (Orleans, France). The as-received MSC cell line has been obtained from the bone marrow of rats. The MSC cell line was cultured in Minimum Essential Medium (MEM) supplemented with 10% heat-inactivated fetal bovine serum (FBS), 1% of L-glutamine (GlutaMAX) and 1% of streptomycin/penicillin antibiotics. The MSC were also seeded in a similar manner to the HeLa cells.
After 24 hours, the respective cell culture media was removed and the HeLa cells or MSC were incubated with the Yb^3+[Zn(II)MCpyzHA] complex according to one of the following procedures.
The MSC cells were incubated with a solution of 150 μM Yb^3+[Zn(II)MCpyzHA] complex in OPTI-MEM® media (supplemented with 2% of FBS at 37° C. in 5% CO2 atmosphere) for 15 minutes, illuminated with UV light (377 nm) for 8 minutes, and then were allowed to continue incubating for 1 hour.
Prior to epifluorescent imaging, the HeLa and the MSC cells were washed twice with OPTI-MEM® (room temperature) in order to remove any non-specifically bound Yb^3+[Zn(II)MCpyzHA] complex.
Data set [7] deals with HeLa cells. Description: Raman spectroscopy of fixed HeLa cells. It counts as cell-based, Human. To be noted: cells stained and fixed as in Example 1. The procedure:
Raman spectroscopy maps were collected for living HeLa cells, HeLa cells that were fixed with paraformaldehyde (PFA), HeLa cells that were fixed with methanol (MeOH), and HeLa cells that were stained and fixed with Yb^3+[Zn(II)MCpyzHA] using the example method disclosed herein (as described in Example 1).
Cells were seeded in an 8-well Lab Tek Chamber coverglass, as previously described in Example 1. Cells were washed trice with OPTI-MEM® (room temperature) and incubated with 4% PFA solution in PBS (Phosphate Buffered Saline) for 30 minutes at room temperature. […]
To study the changes between the different samples, a background subtraction was applied and the signal was collected in the range of 0-4000 cm^−1 in different cellular structures, cytoplasm and nucleus, allowing to observe the variations of specific vibrations arising from the nucleic acids and proteins, in particular, the CH vibrational bands at 2800-3300 cm^−1 that reflect a distribution of proteins, lipids and carbohydrates in cells and often used to localize cellular organelles, as well as OH band in the range of 3100-3650 cm^−1. […] However, a more detailed analysis of Raman signal is required to fully quantify and identify corresponding peaks in order to completely understand changes in the biomolecular profile observed for the fixation with Yb^3+[Zn(II)MCpyzHA].

`O=C([N-][O-])c1cnccn1.O=C([N-][O-])c1cnccn1.O=C([N-][O-])c1cnccn1.O=C([N-][O-])c1cnccn1.O=C([N-][O-])c1cnccn1.O=C([N-][O-])c1cnccn1.O=C([N-][O-])c1cnccn1.O=C([N-][O-])c1cnccn1.O=C([N-][O-])c1cnccn1.O=C([N-][O-])c1cnccn1.O=C([N-][O-])c1cnccn1.O=C([N-][O-])c1cnccn1.O=C([N-][O-])c1cnccn1.O=C([N-][O-])c1cnccn1.O=C([N-][O-])c1cnccn1.O=C([N-][O-])c1cnccn1.O=S(=O)([O-])C(F)(F)F.O=S(=O)([O-])C(F)(F)F.O=S(=O)([O-])C(F)(F)F.[Yb+3].[Zn+2].[Zn+2].[Zn+2].[Zn+2].[Zn+2].[Zn+2].[Zn+2].[Zn+2].[Zn+2].[Zn+2].[Zn+2].[Zn+2].[Zn+2].[Zn+2].[Zn+2].[Zn+2].c1ccncc1.c1ccncc1.c1ccncc1.c1ccncc1.c1ccncc1.c1ccncc1.c1ccncc1.c1ccncc1` [Yb^3+[Zn(II)MCpyzHA]]: the “Q (quantum yield), D2O” value in data set [1] (200 μM in D2O, room temperature, excitation at 370 nm) is on record as 0.257(3) %. Also, the “Q (quantum yield), H2O” value in data set [1] (200 μM in H2O, room temperature, excitation at 370 nm) was 1.12(7) · 10^−2%. In addition, in data set [1] (FIG. 4 (Top), excitation spectrum), the Excitation wavelength limit entry is recorded as “up to 480 nm”. Also, the “Q (quantum yield), Solid” value in data set [1] (solid state, room temperature, excitation at 370 nm) is given as 0.659(4) %. Besides, the “τ (luminescence lifetime), D2O” value in data set [2] (200 μM in D2O, room temperature, excitation at 355 nm) is 81.3(1) μs. Moreover, the “τ (luminescence lifetime), H2O” value in data set [2] (200 μM in H2O, room temperature, excitation at 355 nm) is listed as 5.57(1) μs. Further, the “q (number of coordinated water molecules)” value in data set [2] (calculated from lifetimes, estimated error ±0.2) is on record as 0. The “τ (luminescence lifetime), Solid” value in data set [2] (solid state, room temperature, excitation at 355 nm) was 45.6(3) μs. The “Incubation time after which emission was observed in cells after UV illumination” value in the data set on HeLa cells [3] was found to be 20 min. The “Internalization inside the cells, complex Incubation First” value in the data set with HeLa cells [4] (then NAC 30 minutes) is given as “do not show internalization”. Further, the “NIR signal in cells, NAC Incubation First” value with HeLa cells [4] (NAC 15 minutes, wash, exposure time 400 ms) is “very good signal in NIR”. Further, in data set [5], the Photostability entry is listed as “fully photostable”. Further, the “Function in MSC cells” value in data set [6] was “acting as an NIR dye and cell fixative”. The “Biomolecular profile of fixed HeLa cells compared with PFA and methanol fixation (Raman)” value with HeLa cells [7] is recorded as “very similar biomolecular profiles”.
